Test results published in ChEMBL document CHEMBL1137483, “Novel chalcones as probes for in vivo imaging of beta-amyloid plaques in Alzheimer's brains” (Bioorg Med Chem, 2007).

Assays:
[1] = Displacement of [125I](E)-3-(4-(Dimethylamino-phenyl)-1-(4-iodophenyl)prop-2-en-1-one from beta amyloid(1-42) aggregates; parameters: species or system Homo sapiens
[2] = system: Kidney; assay: Biodistribution in ddY mouse kidney at 0.2 to 0.3 uCi, iv after 30 mins; format: ADME, organism-based; details: in vivo, 0.5 h
[3] = system: Liver; assay: Biodistribution in ddY mouse liver at 0.2 to 0.3 uCi, iv after 2 mins; format: ADME, organism-based; details: in vivo
[4] = system: Spleen; assay: Biodistribution in ddY mouse spleen at 0.2 to 0.3 uCi, iv after 2 mins; format: ADME, organism-based; details: in vivo
[5] = system: Blood; assay: Biodistribution in ddY mouse blood at 0.2 to 0.3 uCi, iv after 30 mins; format: ADME, organism-based; details: in vivo, 0.5 h
[6] = system: Heart; assay: Biodistribution in ddY mouse heart at 0.2 to 0.3 uCi, iv after 2 mins; format: ADME, organism-based; details: in vivo
[7] = system: Brain; assay: Biodistribution in ddY mouse brain at 0.2 to 0.3 uCi, iv after 2 mins; format: ADME, organism-based; details: in vivo
[8] = system: Stomach; assay: Biodistribution in ddY mouse stomach after 30 mins; format: ADME, organism-based; details: in vivo, 0.5 h
[9] = system: Intestine; assay: Biodistribution in ddY mouse intestine at 0.2 to 0.3 uCi, iv after 2 mins; format: ADME, organism-based; details: in vivo
[10] = system: Liver; assay: Biodistribution in ddY mouse liver at 0.2 to 0.3 uCi, iv after 30 mins; format: ADME, organism-based; details: in vivo, 0.5 h
[11] = system: Stomach; assay: Biodistribution in ddY mouse stomach at 0.2 to 0.3 uCi, iv after 2 mins; format: ADME, organism-based; details: in vivo
[12] = system: Kidney; assay: Biodistribution in ddY mouse kidney at 0.2 to 0.3 uCi, iv after 2 mins; format: ADME, organism-based; details: in vivo
[13] = system: Heart; assay: Biodistribution in ddY mouse heart at 0.2 to 0.3 uCi, iv after 30 mins; format: ADME, organism-based; details: in vivo, 0.5 h
[14] = system: Blood; assay: Biodistribution in ddY mouse blood at 0.2 to 0.3 uCi, iv after 2 mins; format: ADME, organism-based; details: in vivo
[15] = system: Lung; assay: Biodistribution in ddY mouse lung at 0.2 to 0.3 uCi, iv after 2 mins; format: ADME, organism-based; details: in vivo
[16] = system: Lung; assay: Biodistribution in ddY mouse lung at 0.2 to 0.3 uCi, iv after 30 mins; format: ADME, organism-based; details: in vivo, 0.5 h
[17] = system: Brain; assay: Biodistribution in ddY mouse brain at 0.2 to 0.3 uCi, iv after 30 mins; format: ADME, organism-based; details: in vivo, 0.5 h
[18] = system: Spleen; assay: Biodistribution in ddY mouse spleen assessed as at 0.2 to 0.3 uCi, iv after 30 mins; format: ADME, organism-based; details: in vivo, 0.5 h
[19] = system: Intestine; assay: Biodistribution in ddY mouse intestine at 0.2 to 0.3 uCi, iv after 30 mins; format: ADME, organism-based; details: in vivo, 0.5 h

Compound: O=C(/C=C/c1ccc(O)cc1)c1ccc(I)cc1
- Ki [1]: 21.4 nM

Compound: CN(C)c1ccc(/C=C/C(=O)c2ccc([125I])cc2)cc1
- Drug uptake [2]: 11.62 % ID/g
- Drug uptake [3]: 10.02 % ID/g
- Drug uptake [4]: 1.37 % ID/g
- Drug uptake [5]: 1.4 % ID/g
- Drug uptake [6]: 3.92 % ID/g
- Drug uptake [7]: 2.04 % ID/g
- Drug uptake [8]: 2.45 %ID
- Drug uptake [9]: 1.31 % ID/g
- Drug uptake [10]: 11.04 % ID/g
- Drug uptake [11]: 0.96 %ID
- Drug uptake [12]: 5.32 % ID/g
- Drug uptake [13]: 1.18 % ID/g
- Drug uptake [14]: 1.85 % ID/g
- Drug uptake [15]: 3.4 % ID/g
- Drug uptake [16]: 1.84 % ID/g
- Drug uptake [17]: 0.49 % ID/g
- Drug uptake [18]: 0.6 % ID/g
- Drug uptake [19]: 10.38 % ID/g

Compound: COc1ccc(/C=C/C(=O)c2ccc([125I])cc2)cc1
- Drug uptake [2]: 3.27 % ID/g
- Drug uptake [3]: 5.97 % ID/g
- Drug uptake [4]: 1.38 % ID/g
- Drug uptake [5]: 0.46 % ID/g
- Drug uptake [6]: 3.74 % ID/g
- Drug uptake [7]: 2.45 % ID/g
- Drug uptake [8]: 2.11 %ID
- Drug uptake [9]: 1.93 % ID/g
- Drug uptake [10]: 4.03 % ID/g
- Drug uptake [11]: 0.9 %ID
- Drug uptake [12]: 4.61 % ID/g
- Drug uptake [13]: 0.63 % ID/g
- Drug uptake [14]: 1.34 % ID/g
- Drug uptake [15]: 3.81 % ID/g
- Drug uptake [16]: 0.79 % ID/g
- Drug uptake [17]: 0.22 % ID/g
- Drug uptake [18]: 0.29 % ID/g
- Drug uptake [19]: 10.19 % ID/g

Compound: O=C(/C=C/c1ccc(O)cc1)c1ccc([125I])cc1
- Drug uptake [2]: 3.51 % ID/g
- Drug uptake [3]: 8.39 % ID/g
- Drug uptake [4]: 3.56 % ID/g
- Drug uptake [5]: 0.57 % ID/g
- Drug uptake [6]: 5.92 % ID/g
- Drug uptake [7]: 3.57 % ID/g
- Drug uptake [8]: 2.16 %ID
- Drug uptake [9]: 1.87 % ID/g
- Drug uptake [10]: 6.64 % ID/g
- Drug uptake [11]: 1.22 %ID
- Drug uptake [12]: 9.3 % ID/g
- Drug uptake [13]: 0.49 % ID/g
- Drug uptake [14]: 1.89 % ID/g
- Drug uptake [15]: 10.04 % ID/g
- Drug uptake [16]: 1.04 % ID/g
- Drug uptake [17]: 0.4 % ID/g
- Drug uptake [18]: 1.04 % ID/g
- Drug uptake [19]: 12.94 % ID/g

Compound: COc1ccc(/C=C/C(=O)c2ccc(I)cc2)cc1
- Ki [1]: 6.3 nM

Compound: CN(C)c1ccc(/C=C/C(=O)c2ccc(I)cc2)cc1
- Ki [1]: 2.9 nM

Compound: Nc1ccc(/C=C/C(=O)c2ccc([125I])cc2)cc1
- Drug uptake [2]: 6.34 % ID/g
- Drug uptake [3]: 7.52 % ID/g
- Drug uptake [4]: 1.53 % ID/g
- Drug uptake [5]: 1.46 % ID/g
- Drug uptake [6]: 4.59 % ID/g
- Drug uptake [7]: 4.49 % ID/g
- Drug uptake [8]: 1.58 %ID
- Drug uptake [9]: 1.84 % ID/g
- Drug uptake [10]: 8.16 % ID/g
- Drug uptake [11]: 0.87 %ID
- Drug uptake [12]: 6.96 % ID/g
- Drug uptake [13]: 0.84 % ID/g
- Drug uptake [14]: 3.62 % ID/g
- Drug uptake [15]: 4.74 % ID/g
- Drug uptake [16]: 1.43 % ID/g
- Drug uptake [17]: 0.46 % ID/g
- Drug uptake [18]: 0.6 % ID/g
- Drug uptake [19]: 11.27 % ID/g

Compound: Nc1ccc(/C=C/C(=O)c2ccc(I)cc2)cc1
- Ki [1]: 105 nM

Compound: CNc1ccc(/C=C/C(=O)c2ccc(I)cc2)cc1
- Ki [1]: 6.3 nM

Compound: CNc1ccc(/C=C/C(=O)c2ccc([125I])cc2)cc1
- Drug uptake [2]: 11.43 % ID/g
- Drug uptake [3]: 7.2 % ID/g
- Drug uptake [4]: 2.85 % ID/g
- Drug uptake [5]: 1.47 % ID/g
- Drug uptake [6]: 4.72 % ID/g
- Drug uptake [7]: 4.72 % ID/g
- Drug uptake [8]: 1.28 %ID
- Drug uptake [9]: 2.06 % ID/g
- Drug uptake [10]: 8.61 % ID/g
- Drug uptake [11]: 1.02 %ID
- Drug uptake [12]: 6.62 % ID/g
- Drug uptake [13]: 1.08 % ID/g
- Drug uptake [14]: 1.64 % ID/g
- Drug uptake [15]: 8.3 % ID/g
- Drug uptake [16]: 4.01 % ID/g
- Drug uptake [17]: 0.61 % ID/g
- Drug uptake [18]: 0.8 % ID/g
- Drug uptake [19]: 10.46 % ID/g

Compound: Nc1c(/N=N/c2ccc(-c3ccc(/N=N/c4cc(S(=O)(=O)O)c5ccccc5c4N)cc3)cc2)cc(S(=O)(=O)O)c2ccccc12 [CONGO RED]
- Ki [1]: > 10000 nM

Compound: Cc1ccc2c(c1)sc(-c1ccc(N(C)C)cc1)[n+]2C [THIOFLAVIN T]
- Ki [1]: > 10000 nM
